These results are taken from patent EP1669379B1, “3,5-DIMETHYL-1-ADAMANTYL-AMMONIUM POLYMERIC SALTS AND THE USE THEREOF IN THE FORM OF ANTIVIRAL AGENTS” (priority 2003, dated 2005).

Data set [1] deals with influenza virus of B type. The conditions noted are these: statement with reference to USSR author's certificates; cited from earlier work.
Data set [2] can be described thus: acute toxicity, single oral administration to mice (LD50). The note with it: both sexes, Balb, mouse, in vivo. The protocol:
The toxicity level of claimed compounds was assessed according to a general index of acute toxicity - average fatal dose of LD50. The study was held with a single oral administration of the agent to white mice of both sexes, line "Balb", weight 18 - 20 g, and to white rats, line "Vistar", weight 130 - 250 g (female) and 225 - 370 g (male). The medications were administered to mice in the dose range from 250 to 1100 mg/kg, and to rats in the range of 480 - 2315 mg/kg.

For data set [3], the system named is virus of the influenza of the type A/Victoria35/72. Type of data set: cell-based. The conditions noted are these: CAC model; dose 25.0 mcg/ml as calculated per equimolecular content of DMAAM.
The test system of data set [4] is virus of the influenza A/Li/40. Put plainly: antiviral activity in tissue culture of chorionallantoic coat fragments (CAC model), A/Li/40. Type of data set: cell-based, chick-embryos. The conditions noted are these: dose 25.0 mcg/ml as calculated per equimolecular content of DMAAM. Here is the method: (§1) The tests of antiviral activity of produced polymeric salts were conducted against the viruses of types A and B influenza using the tissue culture of chorionallantoic coat fragments from chick-embryos (model CAC) and infecting animals (mice).

The test system of data set [5] is virus of the influenza B/Li/40. Put plainly: antiviral activity in infected mice, medical and preventive treatment scheme, oral. Type of data set: in vivo. The note with it: single dose 50 mg/ml as calculated per equimolecular content of DMAAM, administration frequency 5. Here is the method:
as §1
(§2) In each experimental and control (placebo) group 20 mice of both sexes were infected.

Data set [6] deals with influenza A/Aichi/2/68 virus. Briefly: duration of antiviral activity in infected mice, preventive application scheme, single oral dose. Type of data set: in vivo. The conditions noted are these: for Protection index of medication (%) when administered in specified periods (hours) before contamination: mice, single oral dose 100mg/kg as calculated per equimolecular DMAAM content. The protocol:
as §1, §2

The test system of data set [7] is influenza virus of B type. Briefly: summary statement on activity against influenza virus of B type. The conditions noted are these: conclusion from the tables; protection index less than 20 is considered inactive. The source says: At the same time synthesized (claimed) polymeric compounds of 3.5-dimethyl-1-adamantylamine have an effective level of antiviral activity against the influenza virus of B type, both in the infection model of chick-embryo and mice.

The nature of the next data set: solubility (qualitative). In kind it is physicochemical.

One may read the LD50 as the dose at which mortality reaches 50%. Lower therefore signals a more toxic substance.

Counter-ions that a name gives are not always drawn. Like-named read-outs stand apart in the source and are kept apart here.

As to `CC(N)C12CC3CC(CC(C3)C1)C2.Cl` (stereo not drawn) [remantadin, hydrochloride α-methyl-α-(1-adamantyl)methylamine], in data set [1], the “antiviral activity against the influenza virus of B type” value (from here on “antiviral activity”) was “is not effective”.
`CC12CC3CC(C)(C1)CC(N)(C3)C2` [HC - DMAAM (memantine), hydrochloride 3.5-dimethyl-1-adamantylamine]: the LD50 in data set [2] was determined as 363 mg/kg. Also, the “Protection index of the medication, %” value in data set [3] is recorded as 39%; in data set [4], 0%. Also, the “Protection index of medication, %” value in data set [5] is reported as 7.1%. The “The number of animals Died, %” value in data set [5] is 65%. The “The number of animals Died, Animal units” value in data set [5] is given as 13. Further, the “Protection index of medication (%) when administered in specified periods (hours) before contamination” value was 37% in data set [6] (1 hour before contamination); 28% in data set [6] (24 hours before contamination); 22% in data set [6] (48 hours before contamination); 11% in data set [6] (72 hours before contamination); 9% in data set [6] (96 hours before contamination); 7% in data set [6] (120 hours before contamination). Besides, the “time of administration before infection at which the medication was effective” value in data set [6] (prevention scheme, same dose as calculated per 3.5-dimethyl-1-adamantylamine content) was 24 h. For the same compound, the “antiviral activity” value in data set [7] is “is not effective”.
Consider `CC12CC3CC(C)(C1)CC(N)(C3)C2` [3.5-dimethyl-l-adamantylamine, 3.5-dimethyl-1-adamantylamine], for which the solubility in water entry in “solubility (qualitative)” is recorded as “insoluble in water”.
Regarding `Cl.NC12CC3CC(CC(C3)C1)C2` [midantan, hydrochloride 1-adamatilamine], the “antiviral activity” value in data set [1] is “is not effective”.
